In one assay the target is FGFR1 (Homo sapiens (Human), UniProt P11362). The experiment in a line: FGFR Enzymatic Assay (FRET peptide phosphorylation), FGFR1. The note with it: read-out: FGFR1 IC50.
The target in a further assay is FGFR2 (Homo sapiens (Human), UniProt P21802). In words: FGFR Enzymatic Assay (FRET peptide phosphorylation), FGFR2.
The target of the next assay is FGFR3 (Homo sapiens (Human), UniProt P22607). In words: FGFR Enzymatic Assay (FRET peptide phosphorylation), FGFR3.
In the next assay the target is FGFR4 (Homo sapiens (Human), UniProt P22455). In words: FGFR Enzymatic Assay (FRET peptide phosphorylation), FGFR4. The note with it: for FGFR1/FGFR4 IC50 ratio / FGFR2/FGFR4 IC50 ratio / FGFR3/FGFR4 IC50 ratio: IC50 ratio showing FGFR4 selectivity.
Setting [1] is: pre-incubated for 5 to 10 minutes.
Setting [2] is: read-out: FGFR2 IC50, pre-incubated for 5 to 10 minutes.
Where [3] appears, read: read-out: FGFR2 IC50, pre-incubated for 4 hours.
[4] abbreviates: read-out: FGFR3 IC50, pre-incubated for 5 to 10 minutes.
Setting [5] is: read-out: FGFR3 IC50, pre-incubated for 4 hours.
Setting [6] is: read-out: FGFR4 IC50, pre-incubated for 5 to 10 minutes.
The mark [7] stands for this setting: read-out: FGFR4 IC50, pre-incubated for 4 hours.

Like-named read-outs stand apart in the source and are kept apart here.

FGFR2, sequence (P21802 22-821): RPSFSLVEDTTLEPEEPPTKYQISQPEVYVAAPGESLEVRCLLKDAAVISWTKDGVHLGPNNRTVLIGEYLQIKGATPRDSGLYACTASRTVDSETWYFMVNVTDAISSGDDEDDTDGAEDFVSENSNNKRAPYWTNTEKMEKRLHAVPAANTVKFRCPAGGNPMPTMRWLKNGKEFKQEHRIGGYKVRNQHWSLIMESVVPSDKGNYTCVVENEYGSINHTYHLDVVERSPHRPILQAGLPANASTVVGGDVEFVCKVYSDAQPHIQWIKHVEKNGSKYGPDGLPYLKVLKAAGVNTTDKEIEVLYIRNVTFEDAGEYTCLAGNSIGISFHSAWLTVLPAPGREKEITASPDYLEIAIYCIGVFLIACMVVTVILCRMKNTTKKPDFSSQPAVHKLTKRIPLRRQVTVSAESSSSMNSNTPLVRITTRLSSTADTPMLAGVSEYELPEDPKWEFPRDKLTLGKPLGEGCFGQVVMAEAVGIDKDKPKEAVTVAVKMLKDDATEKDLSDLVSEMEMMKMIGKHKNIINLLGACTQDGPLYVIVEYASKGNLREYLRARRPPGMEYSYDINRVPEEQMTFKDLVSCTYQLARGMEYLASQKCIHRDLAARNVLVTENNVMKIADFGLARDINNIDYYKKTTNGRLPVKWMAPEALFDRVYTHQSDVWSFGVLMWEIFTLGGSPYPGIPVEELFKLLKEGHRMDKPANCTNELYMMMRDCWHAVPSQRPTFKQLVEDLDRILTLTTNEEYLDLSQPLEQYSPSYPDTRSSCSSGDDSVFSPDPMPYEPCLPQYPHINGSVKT
FGFR1, sequence (P11362 22-822): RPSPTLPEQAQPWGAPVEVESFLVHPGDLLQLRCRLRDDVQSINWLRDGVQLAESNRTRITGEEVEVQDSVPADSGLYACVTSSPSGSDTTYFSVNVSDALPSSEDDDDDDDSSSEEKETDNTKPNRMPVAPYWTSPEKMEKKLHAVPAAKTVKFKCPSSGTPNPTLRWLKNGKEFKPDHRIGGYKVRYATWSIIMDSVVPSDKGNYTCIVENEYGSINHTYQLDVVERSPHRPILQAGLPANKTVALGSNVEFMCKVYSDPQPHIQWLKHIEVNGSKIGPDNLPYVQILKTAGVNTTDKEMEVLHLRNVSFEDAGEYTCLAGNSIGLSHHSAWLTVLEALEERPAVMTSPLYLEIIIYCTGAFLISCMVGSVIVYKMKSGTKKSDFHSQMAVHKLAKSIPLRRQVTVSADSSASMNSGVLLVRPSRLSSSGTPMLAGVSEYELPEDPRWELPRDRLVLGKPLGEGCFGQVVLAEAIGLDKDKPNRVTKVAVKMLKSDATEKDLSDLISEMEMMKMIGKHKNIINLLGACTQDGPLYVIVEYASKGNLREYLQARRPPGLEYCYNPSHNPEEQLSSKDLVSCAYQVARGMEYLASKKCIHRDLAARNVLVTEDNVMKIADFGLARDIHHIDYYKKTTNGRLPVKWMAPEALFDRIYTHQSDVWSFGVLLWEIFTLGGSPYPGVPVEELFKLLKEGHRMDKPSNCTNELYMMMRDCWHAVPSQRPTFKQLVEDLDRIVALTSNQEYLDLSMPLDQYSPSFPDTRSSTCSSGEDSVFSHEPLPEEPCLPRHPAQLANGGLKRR
FGFR3, sequence (P22607 23-806): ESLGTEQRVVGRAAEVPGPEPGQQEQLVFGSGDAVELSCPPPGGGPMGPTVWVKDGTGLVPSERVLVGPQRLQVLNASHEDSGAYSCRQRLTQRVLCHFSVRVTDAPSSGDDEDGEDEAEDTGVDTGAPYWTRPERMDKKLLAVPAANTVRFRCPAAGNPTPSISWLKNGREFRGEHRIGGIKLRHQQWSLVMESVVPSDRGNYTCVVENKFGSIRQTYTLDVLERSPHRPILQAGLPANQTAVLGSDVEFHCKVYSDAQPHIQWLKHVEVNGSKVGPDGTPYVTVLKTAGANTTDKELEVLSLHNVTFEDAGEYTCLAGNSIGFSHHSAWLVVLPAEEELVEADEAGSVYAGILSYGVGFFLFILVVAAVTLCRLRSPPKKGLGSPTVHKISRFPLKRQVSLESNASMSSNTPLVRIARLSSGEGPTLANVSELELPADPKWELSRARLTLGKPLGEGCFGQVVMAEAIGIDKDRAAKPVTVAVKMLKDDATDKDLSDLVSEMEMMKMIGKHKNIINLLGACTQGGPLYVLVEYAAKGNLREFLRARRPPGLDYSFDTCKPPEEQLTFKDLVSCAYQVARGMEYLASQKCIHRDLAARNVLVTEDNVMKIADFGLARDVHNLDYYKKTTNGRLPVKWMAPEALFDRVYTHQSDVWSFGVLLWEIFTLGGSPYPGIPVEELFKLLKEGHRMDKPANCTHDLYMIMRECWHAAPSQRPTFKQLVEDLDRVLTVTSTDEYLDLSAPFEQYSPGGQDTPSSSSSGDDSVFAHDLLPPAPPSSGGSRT
FGFR4, sequence (P22455 22-802): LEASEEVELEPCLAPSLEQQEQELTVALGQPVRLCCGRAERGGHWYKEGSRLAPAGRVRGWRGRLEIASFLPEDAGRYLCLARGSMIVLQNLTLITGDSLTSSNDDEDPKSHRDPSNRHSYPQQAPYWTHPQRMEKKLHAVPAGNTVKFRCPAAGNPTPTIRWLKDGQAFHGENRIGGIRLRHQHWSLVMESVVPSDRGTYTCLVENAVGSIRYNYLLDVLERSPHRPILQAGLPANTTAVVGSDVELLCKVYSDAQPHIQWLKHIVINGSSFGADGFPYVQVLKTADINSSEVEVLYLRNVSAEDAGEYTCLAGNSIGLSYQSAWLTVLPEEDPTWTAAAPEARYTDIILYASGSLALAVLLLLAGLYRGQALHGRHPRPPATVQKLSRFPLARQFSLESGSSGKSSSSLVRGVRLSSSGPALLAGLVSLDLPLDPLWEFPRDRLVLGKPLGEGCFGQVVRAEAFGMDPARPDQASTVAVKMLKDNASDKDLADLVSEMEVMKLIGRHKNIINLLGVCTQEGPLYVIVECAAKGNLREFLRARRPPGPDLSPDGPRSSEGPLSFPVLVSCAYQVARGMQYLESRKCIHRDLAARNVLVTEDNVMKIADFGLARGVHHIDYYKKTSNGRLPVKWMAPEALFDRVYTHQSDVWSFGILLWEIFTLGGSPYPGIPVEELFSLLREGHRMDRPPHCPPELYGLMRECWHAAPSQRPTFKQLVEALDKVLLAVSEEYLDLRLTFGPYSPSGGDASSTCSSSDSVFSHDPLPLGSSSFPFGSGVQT
From the text for FGFR1: (§1) The enzymes were purchased from Millipore or Invitrogen.
(§2) GraphPad prism3 was used to analyze the data. The IC50 values were derived by fitting the data to the equation for a sigmoidal dose-response with a variable slope. Y=Bottom+(Top-Bottom)/(1+10^((LogIC50−X)*HillSlope)) where X is the logarithm of concentration and Y is the response.
From the text for FGFR2: as §1, §2
From the text for FGFR3: as §1, §2
From the text for FGFR4: as §1, §2

`C=CC(=O)N1CCCC(c2cc3c(cn2)CN(c2c(F)c(OC)cc(OC)c2F)C(=O)C32CC2)C1` (stereo not shown) [Example 8, 6′-(1-acryloylpiperidin-3-yl)-2′-(2,6-difluoro-3,5-dimethoxyphenyl)-1′H-spiro[cyclopropane-1,4′-[2,7]naphthyridin]-3′(2′H)-one]: the IC50 at FGFR1 (setting [1]), at FGFR1 (pre-incubated for 4 hours), on FGFR2 (setting [2]), at FGFR2 (setting [3]), on FGFR3 (setting [4]) and on FGFR3 (setting [5]) was above 200 nM in each case. Further, the half-inhibitory concentration (IC50) against FGFR4 is 30 to 200 nM; on FGFR4 (setting [6]), above 200 nM. Further, the “FGFR1/FGFR4 IC50 ratio” value was above 5 on FGFR4 (setting [1]) and above 10 on FGFR4 (pre-incubated for 4 hours). Besides, the “FGFR2/FGFR4 IC50 ratio” value at FGFR4 (setting [1]) is recorded as above 1; on FGFR4 (pre-incubated for 4 hours), above 2. In addition, the entries for the “FGFR3/FGFR4 IC50 ratio” value at FGFR4 (setting [1]) and at FGFR4 (pre-incubated for 4 hours) were above 1 and above 2, respectively.

`C=CC(=O)Nc1cc(-c2cc3c(cn2)CN(c2c(F)c(OC)cc(OC)c2F)C(=O)C32CC2)cc(N2CCOCC2)c1` [Example 10, N-{3-[2′-(2,6-difluoro-3,5-dimethoxyphenyl)-3′-oxo-2′,3′-dihydro-1′H-spiro[cyclopropane-1,4′-[2,7]naphthyridin]-6′-yl]-5-morpholin-4-ylphenyl}acrylamide]: the IC50 at FGFR1 (setting [1]), at FGFR1 (pre-incubated for 4 hours), at FGFR2 (setting [2]), at FGFR2 (setting [3]), on FGFR3 (setting [4]) and on FGFR3 (setting [5]) was above 200 nM each time. The IC50 on FGFR4 (setting [6]) and at FGFR4 (setting [7]) was below 10 nM in each case. In addition, the “FGFR1/FGFR4 IC50 ratio” value at FGFR4 (setting [1]) and on FGFR4 (pre-incubated for 4 hours) was above 100 throughout. Also, the “FGFR2/FGFR4 IC50 ratio” value at FGFR4 (setting [1]) and at FGFR4 (pre-incubated for 4 hours) was above 100 each time. The “FGFR3/FGFR4 IC50 ratio” value on FGFR4 (setting [1]) and on FGFR4 (pre-incubated for 4 hours) was above 100 each time.

Take `C=CC(=O)Nc1cc(CN2CCOCC2)cc(-c2cc3c(cn2)CN(c2c(F)c(OC)cc(OC)c2F)C(=O)C32CC2)c1` [Example 11, N-[3-[2′-(2,6-difluoro-3,5-dimethoxyphenyl)-3′-oxo-2′,3′-dihydro-1′H-spiro[cyclopropane-1,4′-[2,7]naphthyridin]-6′-yl]-5-(morpholin-4-ylmethyl)phenyl]acrylamide]: the IC50 on FGFR1 (setting [1]), at FGFR1 (pre-incubated for 4 hours), on FGFR2 (setting [2]), at FGFR2 (setting [3]), at FGFR3 (setting [4]) and on FGFR3 (setting [5]) was above 200 nM in each case. The half-inhibitory concentration (IC50) on FGFR4 (setting [6]) and at FGFR4 (setting [7]) was below 10 nM each time. Further, the “FGFR1/FGFR4 IC50 ratio” value on FGFR4 (setting [1]) and at FGFR4 (pre-incubated for 4 hours) was above 100 each time. Also, the “FGFR2/FGFR4 IC50 ratio” value on FGFR4 (setting [1]) and on FGFR4 (pre-incubated for 4 hours) was above 100 each time. For the same molecule, the “FGFR3/FGFR4 IC50 ratio” value at FGFR4 (setting [1]) and on FGFR4 (pre-incubated for 4 hours) was above 100 throughout.

As to `C=CC(=O)Nc1cc(-c2cc3c(cn2)CN(c2c(F)c(OC)cc(OC)c2F)C(=O)C32CC2)ccc1CN1CCOCC1` [Example 12, N-(5-(2′-(2,6-difluoro-3,5-dimethoxyphenyl)-3′-oxo-2′,3′-dihydro-1′H-spiro[cyclopropane-1,4′-[2,7]naphthyridine]-6′-yl)-2-(morpholinomethyl)phenyl)acrylamide], the IC50 was above 200 nM at FGFR1 (setting [1]); above 200 nM on FGFR1 (pre-incubated for 4 hours); 30 to 200 nM on FGFR2; 30 to 200 nM on FGFR2 (setting [2]); 30 to 200 nM on FGFR3 (FGFR3 IC50 (nM), pre-incubated for 5 to 10 minutes); 10 to 30 nM at FGFR3 (FGFR3 IC50 (nM), pre-incubated for 4 hours). Besides, the IC50 on FGFR4 (setting [6]) and on FGFR4 (setting [7]) was below 10 nM each time. For the same molecule, the “FGFR1/FGFR4 IC50 ratio” value on FGFR4 (setting [1]) is on record as above 10; at FGFR4 (pre-incubated for 4 hours) it was above 100. Moreover, the “FGFR2/FGFR4 IC50 ratio” value at FGFR4 (setting [1]) is above 1; at FGFR4 (pre-incubated for 4 hours), above 25. Moreover, the figures for the “FGFR3/FGFR4 IC50 ratio” value at FGFR4 (setting [1]) and at FGFR4 (pre-incubated for 4 hours) were above 1 and above 10, respectively.

For `C=CC(=O)Nc1cn[nH]c1-c1cc2c(cn1)CN(c1c(F)c(OC)cc(OC)c1F)C(=O)C21CC1` [Example 14, N-(5-(2′-(2,6-difluoro-3,5-dimethoxyphenyl)-3′-oxo-2′,3′-dihydro-1′H-spiro[cyclopropane-1,4′-[2,7]naphthyridine]-6′-yl)-1H-pyrazol-4-yl)acrylamide], the concentration for half-maximal inhibition (IC50) on FGFR1 (pre-incubated for 4 hours) is above 200 nM; at FGFR2 (setting [3]), above 200 nM; at FGFR3 (setting [5]) it was above 200 nM; at FGFR4 (setting [7]) it was below 10 nM. Further, on FGFR4 (pre-incubated for 4 hours), the “FGFR1/FGFR4 IC50 ratio” value is recorded as above 100. In addition, the “FGFR2/FGFR4 IC50 ratio” value at FGFR4 (pre-incubated for 4 hours) is on record as above 100. The “FGFR3/FGFR4 IC50 ratio” value on FGFR4 (pre-incubated for 4 hours) is reported as above 100.

For the molecule `C=CC(=O)Nc1cnn(CCOC)c1-c1cc2c(cn1)CN(c1c(F)c(OC)cc(OC)c1F)C(=O)C21CC1` [Example 15, N-(5-(2′-(2,6-difluoro-3,5-dimethoxyphenyl)-3′-oxo-2′,3′-dihydro-1′H-spiro[cyclopropane-1,4′-[2,7]naphthyridine]-6′-yl)-1-(2-methoxyethyl)-1H-pyrazol-4-yl)acrylamide], the IC50 at FGFR1 (pre-incubated for 4 hours) was above 200 nM; at FGFR2 (setting [3]) it was above 200 nM; on FGFR3 (setting [5]) it was above 200 nM; on FGFR4 (setting [7]), below 10 nM. The “FGFR1/FGFR4 IC50 ratio” value on FGFR4 (pre-incubated for 4 hours) is given as above 100. The “FGFR2/FGFR4 IC50 ratio” value on FGFR4 (pre-incubated for 4 hours) is reported as above 100. For the same molecule, the “FGFR3/FGFR4 IC50 ratio” value on FGFR4 (pre-incubated for 4 hours) is above 100.

Consider `C=CC(=O)Nc1cnn(CCOCC)c1-c1cc2c(cn1)CN(c1c(F)c(OC)cc(OC)c1F)C(=O)C21CC1` [Example 16, N-(5-(2′-(2,6-difluoro-3,5-dimethoxyphenyl)-3′-oxo-2′,3′-dihydro-1′H-spiro[cyclopropane-1,4′-[2,7]naphthyridine]-6′-yl)-1-(2-ethoxyethyl)-1H-pyrazol-4-yl)acrylamide], for which the IC50 is above 200 nM at FGFR1 (pre-incubated for 4 hours), above 200 nM on FGFR2 (setting [3]), above 200 nM on FGFR3 (setting [5]) and below 10 nM on FGFR4 (setting [7]). The “FGFR1/FGFR4 IC50 ratio” value at FGFR4 (pre-incubated for 4 hours) was above 100. Further, the “FGFR2/FGFR4 IC50 ratio” value at FGFR4 (pre-incubated for 4 hours) is listed as above 100. Besides, the “FGFR3/FGFR4 IC50 ratio” value at FGFR4 (pre-incubated for 4 hours) is on record as above 100.

Regarding `C=CC(=O)Nc1cnn(CCO)c1-c1cc2c(cn1)CN(c1c(F)c(OC)cc(OC)c1F)C(=O)C21CC1` [Example 17, N-(5-(2′-(2,6-difluoro-3,5-dimethoxyphenyl)-3′-oxo2′,3′-dihydro-1′H-spiro[cyclopropane-1,4′-[2,7]naphthyridine]-6′-yl)-1-(2-hydroxyethyl)-1H-pyrazol-4-yl)acrylamide], the half-inhibitory concentration (IC50) is above 200 nM at FGFR1 (pre-incubated for 4 hours), above 200 nM at FGFR2 (setting [3]), above 200 nM on FGFR3 (setting [5]) and below 10 nM on FGFR4 (setting [7]). Also, the “FGFR1/FGFR4 IC50 ratio” value on FGFR4 (pre-incubated for 4 hours) is reported as above 100. Further, the “FGFR2/FGFR4 IC50 ratio” value on FGFR4 (pre-incubated for 4 hours) is on record as above 100. The “FGFR3/FGFR4 IC50 ratio” value at FGFR4 (pre-incubated for 4 hours) was above 100.

For the molecule `C=CC(=O)Nc1cnn(C2CCOCC2)c1-c1cc2c(cn1)CN(c1c(F)c(OC)cc(OC)c1F)C(=O)C21CC1` [Example 18, N-(5-(2′-(2,6-difluoro-3,5-dimethoxyphenyl)-3′,-oxo-2′,3′-dihydro-1′H-spiro[cyclopropane-1,4′-[2,7]naphthyridine]-6′-yl)-1-(tetrahydro-2H-pyran-4-yl)-1H-pyrazol-4-yl)acrylamide], the IC50 at FGFR1 (pre-incubated for 4 hours) is above 200 nM; on FGFR2 (setting [3]), above 200 nM; at FGFR3 (setting [5]) it was above 200 nM; on FGFR4 it was 10 to 30 nM. On FGFR4 (pre-incubated for 4 hours), the “FGFR1/FGFR4 IC50 ratio” value is given as above 100. The “FGFR2/FGFR4 IC50 ratio” value on FGFR4 (pre-incubated for 4 hours) is above 50. Moreover, the “FGFR3/FGFR4 IC50 ratio” value at FGFR4 (pre-incubated for 4 hours) was above 100.

For `C=CC(=O)Nc1cnn(CCN2CCOCC2)c1-c1cc2c(cn1)CN(c1c(F)c(OC)cc(OC)c1F)C(=O)C21CC1` [Example 19, N-(5-(2′-(2,6-difluoro-3,5-dimethoxyphenyl)-3′-oxo-2′,3′-dihydro-1′H-spiro[cyclopropane-1,4′-[2,7]naphthyridine]-6′-yl)-1-(2-morpholinoethyl)-1H-pyrazol-4-yl)acrylamide], the IC50 on FGFR1 (pre-incubated for 4 hours) was above 200 nM; on FGFR2 (setting [3]), above 200 nM; on FGFR3 (setting [5]), above 200 nM; against FGFR4 it was 10 to 30 nM. At FGFR4 (pre-incubated for 4 hours), the “FGFR1/FGFR4 IC50 ratio” value is above 100. In addition, the “FGFR2/FGFR4 IC50 ratio” value at FGFR4 (pre-incubated for 4 hours) is above 100. At FGFR4 (pre-incubated for 4 hours), the “FGFR3/FGFR4 IC50 ratio” value is above 100.

For the molecule `C=CC(=O)Nc1cnn(Cc2ccncc2)c1-c1cc2c(cn1)CN(c1c(F)c(OC)cc(OC)c1F)C(=O)C21CC1` [Example 21, N-(5-(2′-(2,6-difluoro-3,5-dimethoxyphenyl)-3′-oxo-2′,3′-dihydro-1′H-spiro[cyclopropane-1,4′-[2,7]naphthyridine]-6′-yl)-1-(pyridin-4-ylmethyl)-1H-pyrazol-4-yl)acrylamide], the concentration for half-maximal inhibition (IC50) at FGFR1 (pre-incubated for 4 hours) was above 200 nM; on FGFR2 (setting [3]) it was above 200 nM; at FGFR3 (setting [5]) it was above 200 nM; on FGFR4 (setting [7]) it was below 10 nM. Further, the “FGFR1/FGFR4 IC50 ratio” value at FGFR4 (pre-incubated for 4 hours) is recorded as above 100. Also, the “FGFR2/FGFR4 IC50 ratio” value at FGFR4 (pre-incubated for 4 hours) was above 50. Moreover, the “FGFR3/FGFR4 IC50 ratio” value at FGFR4 (pre-incubated for 4 hours) is above 100.

In the case of `C=CC(=O)Nc1cnn(Cc2cccnc2)c1-c1cc2c(cn1)CN(c1c(F)c(OC)cc(OC)c1F)C(=O)C21CC1` [Example 22, N-(5-(2′-(2,6-difluoro-3,5-dimethoxyphenyl)-3′-oxo-2′,3′-dihydro-1′H-spiro[cyclopropane-1,4′-[2,7]naphthyridine]-6′-yl)-1-(pyridin-3-ylmethyl)-1H-pyrazol-4-yl)acrylamide], the IC50 on FGFR1 (pre-incubated for 4 hours) is above 200 nM; at FGFR2 (setting [3]), above 200 nM; at FGFR3 (setting [5]), above 200 nM; at FGFR4 (setting [7]) it was below 10 nM. Also, the “FGFR1/FGFR4 IC50 ratio” value at FGFR4 (pre-incubated for 4 hours) is listed as above 100. Moreover, the “FGFR2/FGFR4 IC50 ratio” value on FGFR4 (pre-incubated for 4 hours) is above 100. Moreover, the “FGFR3/FGFR4 IC50 ratio” value at FGFR4 (pre-incubated for 4 hours) is listed as above 100.

The term IC50 denotes the concentration needed to halve the response being measured.

The values above are taken from patent US9580423B2, “Bicyclic heterocycles as FGFR4 inhibitors” (Incyte Corporation, priority 2015, dated 2017).
